A melting point compilation (Tetko et al.; mined from patent text by program, amines drawn as free bases though some values may be those of a salt)

melting point [°C] | SMILES
64 to 65 | CC(C)(C)NS(=O)(=O)c1ccccc1CCCl
135 | CCc1nn(CCO)c(N)c1Cc1cc(Cl)cc(Cl)c1
> 300 | O=C(O)c1ccc(N2C(=O)c3cccc([N+](=O)[O-])c3C2=O)cc1
172 to 174 | CCOC(=O)CNC(=O)c1cn2nc(NCCCN3CCC(OC(c4ccccc4)c4ccccc4)CC3)ccc2n1
225 to 226 | O=C1CCC(c2ccc(-c3cccnc3)cc2)=NN1
250 to 252 | O=C1NCCc2c(-c3ccc(Cl)cc3)[nH]c3cccc1c23
94 to 95 | CC(=O)NCS[C@@H]1CC(=O)N(Cc2ccc(Oc3ccc(F)cc3)nc2)C1
234 | Clc1ccc2c(c1)C(c1ccccc1Cl)=CCc1nnc(Br)n1-2
45 to 47 | COC(=O)CCc1c(C(C)C)cc(C(C)C)cc1C(C)C
262 to 264 | CN1CCN(c2n[nH]c(-c3ccc(Cl)cc3)c2-c2ccncc2)CC1
228 | COC(=O)c1cc(C(=O)c2c(C)c(OC)c3ccccn23)ccc1NC(=O)NCC(=O)N(C)C
121 to 122 | COC(=O)Cc1cscc1C(=O)O
152 to 154 | CCOCc1nc2c(N)nc3c(c2n1NCCCNC(=O)N1CCOCC1)CCCC3
170 to 171 | O=C(NC1CC1)c1cn2c(NCCCCCCNS(=O)(=O)c3ccccc3[N+](=O)[O-])nsc2n1
64 to 65 | CC(CN=C(O)C(Cl)=C(Cl)C(=O)O)Cc1ccc(C(C)(C)C)cc1 (stereo unspecified)
160 | CCOC(=O)NCCN1CCC(NC(=O)c2cc(Cl)c(N)c3c2OCCC3)CC1
170 to 171 | Cc1cccnc1-c1ccc2ccnc(N)c2n1
169 to 170 | CCN(C1CC(C)(C)Oc2ccc(O)cc21)S(C)(=O)=O (stereo unspecified)
160 | Cn1cc(Cc2cc3cc(C(F)(F)F)ccc3n2S(=O)(=O)c2cccc(C(C)(C)C)c2)cc1C(=O)O
137 to 138 | N#Cc1ccc(CN2CCN(c3ccncc3)CC2)cc1
210 to 211 | COc1ccc2ccn(CC(N)=O)c2c1
164 to 165 | Cc1cc2ccc(/C=C/C(=O)OCc3ccccc3)cc2[nH]1
193 | Cc1c(-c2cccnn2)ssc1=S
268 | N#Cc1nc2ccccc2[nH]1
138 to 140 | CN(C1CCCc2ccc([N+](=O)[O-])cc21)S(C)(=O)=O (stereo unspecified)

melting point [°C] | SMILES
136 to 137 | C=NOCc1ccc(CCc2csc(NC(C)=O)n2)cc1
147 to 148 | NS(=O)(=O)c1ccc(C2=C(c3ccc(F)c(F)c3)CCC2)cc1
233 to 236 | COc1ccc(Oc2nc(Nc3cccc(C(=O)O)c3)nc(Oc3ccccc3)n2)cc1
179 to 182 | CS(=O)(=O)c1ccc(-c2[nH]c(SCc3ccc4ccccc4n3)nc2-c2ccc(F)cc2)cc1
214 to 216 | COc1cc(C(=O)NC2CC2)c(Cl)cc1O
143 to 146 | COc1ccc(N2CCN(c3ccc(OC)nc3-c3ccc(C)cc3)CC2)cc1
86 to 88 | CCOCN1C(C)=C(C(=O)OC)C(c2cccc([N+](=O)[O-])c2)C(C(=O)OC)=C1C
145 to 152 | Cc1ccc(C(=O)NC(C)(C(N)=O)C(C)C)cc1 (stereo unspecified)
106 to 109 | CCCCCCN(Cc1ccc2ccccc2n1)C(Nc1ccc(OC)cc1OC)=C1C(=O)OC(C)(C)OC1=O
156 to 157 | CCCOc1cccnc1C(O)c1ccc(N)cc1 (stereo unspecified)
160 to 162 | N=C(N)N(C[C@H]1CC[C@H](C(=O)Nc2ccnc3[nH]ccc23)CC1)C(=O)OCc1ccccc1
147 to 149 | O=C1N(C(c2ccccc2)c2ccccc2)c2cc(F)ccc2C1(O)c1cc2c(cc1O)OCC2 (stereo unspecified)
199 to 200 | CCCOc1ccc2c(c1)[C@H](c1ccc(OC)cc1-c1ccccc1)[C@@H](C(=O)O)[C@@H]2c1ccc2c(c1)OCO2 (racemic)
160 to 161 | CC1CN(C(=O)Cn2c(=O)n(C)c3nc(-c4ccccc4)ncc32)CC(C)O1 (stereo unspecified)
141 to 143 | CC(=Cc1ccccc1Cl)C(O)(Cn1cncn1)c1ccc(Cl)cc1 (stereo unspecified)
184 | CC(C)(C)OC(=O)N1CCN(c2ccc(N3C[C@H](CN)OC3=O)cc2F)CC1
168 to 171 | Cc1c(C)c2c(c(C)c1O)CCC(C)(CC(=O)O)O2 (stereo unspecified)
88 to 89 | CCCCC[C@H](CC(=O)Nc1c(F)cc(F)cc1F)c1cccc2c1OCO2
97 | CC(C)c1ccc(S(=O)(=O)n2c(C(O)c3cccc(C(=O)O)c3)cc3cc(Cl)ccc32)cc1 (stereo unspecified)
117 to 118 | COC1c2ccccc2CSc2ccc(C#N)cc21 (stereo unspecified)
148 to 150 | Cn1cc(-c2ccccc2)c(=O)c(-c2cc(Br)ccc2F)c1
82 to 83 | COc1c(C=NO)ccc(Cl)c1Cl
148 to 150 | CCc1nn(C[C@@H]2CCCN2C)c(C(N)=O)c1[N+](=O)[O-]
153 to 155 | CCCCCCCOc1cc2c(cc1C=Cc1ccc(C(=O)O)cc1)C(C)(C)CCC2(C)C
139 to 141 | COc1ccc2c(c1)C(CCNC(C)=O)C1(CC2)Cc2ccccc2C1 (stereo unspecified)

melting point [°C] | SMILES
218 to 219 | CCOc1ccc(NC(=O)c2c[nH]c3c2C(=O)C(C)(C)CC3)c(F)c1
> 220 | CC(C)(C)C(=O)c1sc(N)nc1-c1ccc(P(=O)(O)O)o1
214 to 216 | CC(C)Cn1cnc2c(N)nc3ccc(OCc4ccccc4)cc3c21
180 to 181 | Nc1c(-c2ccc(C(F)(F)F)cc2F)nnn1Cc1ccc(S(N)(=O)=O)cc1
49 to 51 | OCc1ccc(Br)nc1
148 to 149 | CC(=O)C(O)C1OC(n2cc(F)c(=O)[nH]c2=O)CC1(O)C(C)=O (stereo unspecified)
70 | CC(C)(O)CN(c1ccc(F)cc1)[C@H]1c2cc(C#N)ccc2OC(C)(C)[C@@H]1O
269 to 270 | c1ccc(-c2cc(-c3csc(Nc4ccncc4)n3)on2)cc1
66.8 | CCCCC(=O)N[C@@H]1CN2C(=O)N(c3cc(Cl)nc(Cl)c3)C(=O)[C@@]2(Cc2ccc(OC(F)(F)F)cc2)C1
204 to 206 | O=Cc1ccc(-c2ccc(-c3ccc(C=O)o3)cn2)cc1
134 to 138 | CCOC(=O)NN=C(c1ccc(Cl)cc1)c1ccc(OS(=O)(=O)c2ccc([N+](=O)[O-])cc2)cc1
192 to 195 | O=C1c2ccccc2N(Cc2ccc(F)cc2)C2=NCCN12
315 to 320 | O=C1C(Cl)=Cc2c(Cl)cc3c4c(c(Cl)cc1c24)C=C(Cl)C3=O
91 to 93 | Cc1ccccc1-c1cc(O)ncc1C(=O)N(C)Cc1cc(C(F)(F)F)cc(C(F)(F)F)c1
85 to 86 | Cc1ccc(N(Cc2ccccc2)c2ccccc2)cc1
210 | CN(C)S(=O)(=O)c1cccc(NC(=O)c2cnn3c(C(F)(F)F)cc(-c4ccc(C(F)(F)F)cc4)nc23)c1
138 to 141 | CN(C)N1CSC(=Cc2cc(C(C)(C)C)c(O)c(C(C)(C)C)c2)C1=O
147 to 148 | CC(O)c1ccc2occ(C#N)c(=O)c2c1 (stereo unspecified)
145 to 147 | CN1CC[C@@H](c2c(O)cc(O)c3c(=O)cc(-c4cc(F)ccc4Br)oc23)[C@@H]1CO
167 to 169 | O=C(NC(=O)c1c(F)cccc1F)Nc1cc(C(F)(F)F)ccn1
142 to 143 | O=C(O)CCc1cnoc1-c1cc(Cl)c(Cl)s1
190 to 195 | N#Cc1cc(C(=O)NNC(=O)c2occc2-c2cccc(OCc3ccccc3)c2)ccc1O
201 to 203 | COc1ccc(-c2c(Cl)c(Cn3cnc4ccccc43)nc3sc4c(c23)CCSC4)cc1
129 to 130 | Cn1ccc(-c2ccc(F)cc2)c1-c1ccc(F)cc1
94.9 to 96 | CC(C)C[C@H](NC(=O)O[C@H]1CCOC1)C(=O)O

melting point [°C] | SMILES
96 to 98 | OCc1cc(OCc2ccc(C(F)(F)F)cc2)ccn1
240 to 242 | COc1nc2cc(Cl)c(Cl)c(N(CCO)S(C)(=O)=O)c2nc1OC
175 | CCOC(=O)C(CC)Sc1nc2c([nH]1)c(=O)n(C)c(=O)n2C (stereo unspecified)
69 to 71 | COc1cc(C=O)c(OC)c(C)c1C
119 to 120 | CN(CCC=C1c2ccccc2C=Cc2ccccc21)CCC(=O)O
93 | COC=CC(C)(C)C(=O)Nc1ccc(Cl)cc1
277 | O=C(NC1CCC1)c1cc(Nc2nc(Cl)nc3ccoc23)[nH]n1
197 to 198 | NS(=O)(=O)c1cccc(-c2ccco2)c1
263 to 265 | CCn1ncc2c(NCc3ccc(OC)cc3)c3cc(OC)ccc3nc21
120 to 121 | CC(C)(C)OC(=O)N1CCC(C(=O)Nc2ccccc2Oc2ccc(Cl)cc2Cl)CC1
107 to 109 | COC(=O)CC/C(C)=C/Cc1c(NC(=O)C(F)(F)F)c2c(c(C)c1OC)COC2=O
192 to 193 | CC1(C(=O)c2c[nH]c3ncc(-c4cccc(N5CCCC5)c4)nc23)CCCCCC1
127 to 129 | CCCCCCCC(=O)NNC(=O)N1Cc2ccccc2Oc2ccc(Cl)cc21
142 to 143 | CC1(C)OC[C@H](c2cnc(NC(=O)C(C)(C)C)cn2)O1
109 to 115 | CC12CCC(OC(=O)C(F)(F)F)CC1=CCC1=C2CCC2(C)C(=O)CCC12 (stereo unspecified)
161 to 163 | N=C(Nc1ccc(NC(=O)CNCc2ccccc2)cc1)c1cccs1
254 to 256 | Nc1cnc(-c2ccc(Br)cc2)c(Cl)n1
118 to 120 | O=C(O)CC(C1CCCCC1)C1CCCCC1
65 to 66 | O=C1C=CC(OC2CCCCC2)N1 (stereo unspecified)
109 to 110 | CCCc1nc2ccccn2c(=O)c1-c1ccc(Cl)cc1
209 | O=C(Nc1ccc(Oc2c(Cl)cc(C(F)(F)F)c(Cl)c2Cl)cc1Cl)Nc1nonc1-c1ccccc1
195 to 199 | CC(=O)c1cc2c(cc1NC(=O)C(O)(CC(C)(C)c1ccccc1)C(F)(F)F)COC2=O (stereo unspecified)

SMILES | melting point [°C]
Nc1ncnc2c1ncn2Cc1nc2cccc(Cl)c2c(=O)n1-c1ccccc1F | 296
CCCN(CCC)C1CCc2cc(NC(=O)C=NO)ccc2C1 (stereo unspecified) | 110 to 112
CC1CC2(OC3CC4C5CCC6CC(O)CCC6(C)C5C(=O)CC4(C)C3C2(C)O)OC1(C)C (stereo unspecified) | 206 to 208
COC(=O)C12Cc3cc(Cl)ccc3C1=NNCO2 (stereo unspecified) | 124 to 127
